Read-outs that look alike come from different tables or passages of the source. Starred links: 1 amine or outer side, 2 acyl side, 3 side chain; linkers in the order of their positions; H or OH if unused. Positions of bridges follow the written chain, without caps; N, C: chain ends. Non-standard residues stand in square brackets, D forms with d. Residues, ends and D or L forms follow the SMILES beside them. *: point of attachment. Phe(3-NHCO(CH2)3SO2NH2) = N[C@@H](Cc1cccc(NC(=O)CCCS(N)(=O)=O)c1)C(=O)O; NH(1-deoxy-D-glucityl) = OC[C@@H](O)[C@@H](O)[C@H](O)[C@@H](O)CN*; DOTA = O=C(O)CN1CCN(CC(=O)O)CCN(CC(=O)*)CCN(CC(=O)O)CC1; X22 = CC(C)CC(=O)Nc1cccc(C[C@H](N[*:1])C(=O)[*:2])c1; X7 = O=C([C@H](Cc1cccc(N[*:3])c1)N[*:1])[*:2]; Propanoyl(3-SO2NH2) = NS(=O)(=O)CCC(=O)*; Phe(4-NH2) = Nc1ccc(C[C@H](N)C(=O)O)cc1; mXylylene = c1cc(C[*:1])cc(C[*:2])c1; X13 = O=C1NC2NC(=O)N(CC(=O)*)C2N1; Trx = NC[C@H]1CC[C@H](C(=O)O)CC1; X2 = O=C(CN1CCC(N[*:1])CC1)[*:2]; X1 = O=C(CN1CCN([*:1])CC1)[*:2]; X27 = NS(=O)(=O)c1ccc(C(=O)*)s1; Cha = N[C@@H](CC1CCCCC1)C(=O)O; 4Amb = NCc1ccc(C(=O)O)cc1; Dap = NC[C@H](N)C(=O)O; Inp = O=C(O)C1CCNCC1
How the values were obtained:
[1] = molecular target: T1, human carbonic anhydrase IX (hCAIX-Fc) (Homo sapiens, UniProt Q16790); experiment: Surface plasmon resonance assay with hCAIX-Fc; type: binding; settings: 25° C.; for t1/2 category (activity): SPR dissociation half-life, hCAIX-Fc; for Kd: SPR, hCAIX-Fc captured, read-out: pKD category (activity) (converted)
T1 construct: purchased SinoBliological (Sino Biological) 10107-H02H

[2] = molecular target: T2, CAIX-expressing human HT-29 colorectal cancer cells (Homo sapiens, UniProt Q16790); experiment: FACS binding assay (IC50 determination, competition with tracer 3BP-2776 or 3BP-4149); settings: 4° C., 1 hour, read-out: pIC50 category (activity) (converted)
T2 construct: CAIX-expressing human HT-29 colorectal cancer cells; host or cells: HT-29 human colorectal cancer cells
How it was run: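 HT-29 cells in FACS buffer (PBS, 1% FCS) at 500.000 cells/ml were exposed to compounds competing with a labelled tracer, with biotinylated compounds detected by 1 μg/mL APC-streptavidin for 30 min on ice. APC/Cy5 median fluorescence was read by flow cytometry and IC50 derived by 4PL fit.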

[3] = FACS binding assay, HT-29 cells, competition with tracer 3BP-2776 (10 nM, biotin-labeled)
[4] = FACS competition on HT-29 cells, Tracer ID 3BP-2776 (10 nM, biotin-labeled)
[5] = FACS binding assay, HT-29 cells, competition with tracer 3BP-4149 (3 nM, Cy5-labeled)

| t1/2 category (activity) [1] | Kd [1] [nM] | IC50 [2, 3] [nM] | IC50 [2, 4] [nM] | IC50 [2, 5] [nM] | Compound |
| --- | --- | --- | --- | --- | --- |
| C (t1/2 between 2.1 and 5.0 minutes) | < 10 | < 10 |  |  | CC(C)C[C@@H]1NC(=O)[C@H](Cc2c[nH]c3ccccc23)NC(=O)[C@H](CC(=O)O)NC(=O)[C@H]2CCCN2C(=O)[C@H](CCC(=O)O)NC(=O)[C@@H]2CSCc3cccc(c3)CSC[C@@H](C(N)=O)NC(=O)[C@H](CC(=O)NC[C@H](NC(=O)[C@@H](NC(=O)CN3CCC(NC(=O)CN4CCN(CC(=O)O)CCN(CC(=O)O)CCN(CC(=O)O)CC4)CC3)C(C)C)C(=O)N2)NC(=O)[C@H](Cc2c[nH]c3ccccc23)NC(=O)[C@H]([C@@H](C)O)NC1=O [3BP-4176] ({DOTA}-[X2]V[Dap]CE[dP]DWLTWDC-NH2; lactam 3-12; linker 4-13 via mXylylene) |
| A (t1/2>15.0 minutes) | < 10 | < 10 |  |  | CC(C)C[C@@H]1NC(=O)[C@H](Cc2ccc(NC(=O)CCS(N)(=O)=O)cc2)NC(=O)[C@H](CC(=O)O)NC(=O)[C@H]2CCCN2C(=O)[C@H](CCC(=O)O)NC(=O)[C@@H]2CSCc3cccc(c3)CSC[C@@H](C(N)=O)NC(=O)[C@H](CNC(=O)CC[C@H](NC(=O)CN3CCN(C(=O)CN4CCN(CC(=O)O)CCN(CC(=O)O)CCN(CC(=O)O)CC4)CC3)C(=O)N2)NC(=O)[C@H](Cc2c[nH]c3ccccc23)NC(=O)[C@H]([C@@H](C)O)NC1=O [3BP-4504] ({DOTA}-[X1]ECE[dP]D[Phe(4-NH2)](Propanoyl(3-SO2NH2))LTW[Dap]C-NH2; lactam 2-11; linker 3-12 via mXylylene) |
| B (t1/2 between 5.1 and 15.0 minutes) | < 10 |  | < 10 |  | CC(C)C[C@@H]1NC(=O)[C@H](Cc2c[nH]c3ccccc23)NC(=O)[C@H](CC(=O)O)NC(=O)[C@H]2CCCN2C(=O)[C@H](CCC(=O)O)NC(=O)[C@@H](NC(=O)[C@H](Cc2ccc(O)cc2)NC(=O)[C@H]2CC[C@H](CNC(=O)CN3CCN(CC(=O)O)CCN(CC(=O)O)CCN(CC(=O)O)CC3)CC2)CSCc2cccc(c2)CSC[C@@H](C(N)=O)NC(=O)[C@H](CO)NC(=O)[C@H](Cc2c[nH]c3ccccc23)NC(=O)[C@H]([C@@H](C)O)NC1=O [3BP-3868] ({DOTA-Trx}-YCE[dP]DWLTWSC-NH2; linker 2-11 via mXylylene) |
| C (t1/2 between 2.1 and 5.0 minutes) | < 10 | < 10 |  |  | CC(C)C[C@@H]1NC(=O)[C@H](Cc2c[nH]c3ccccc23)NC(=O)[C@H](CC(=O)O)NC(=O)[C@H]2CCCN2C(=O)[C@H](CCC(=O)O)NC(=O)[C@@H]2CSCc3cccc(c3)CSC[C@@H](C(N)=O)NC(=O)[C@H](CNC(=O)C[C@H](NC(=O)c3ccc(CNC(=O)CN4CCN(CC(=O)O)CCN(CC(=O)O)CCN(CC(=O)O)CC4)cc3)C(=O)N2)NC(=O)[C@H](Cc2c[nH]c3ccccc23)NC(=O)[C@H]([C@@H](C)O)NC1=O [3BP-4261] ({DOTA-4Amb}-DCE[dP]DWLTW[Dap]C-NH2; lactam 1-10; linker 2-11 via mXylylene) |
| C (t1/2 between 2.1 and 5.0 minutes) | < 10 | < 10 |  |  | CC(C)C[C@@H]1NC(=O)[C@H](Cc2c[nH]c3ccccc23)NC(=O)[C@H](CC(=O)O)NC(=O)[C@H]2CCCN2C(=O)[C@H](CCC(=O)O)NC(=O)[C@@H]2CSCc3cccc(c3)CSC[C@@H](C(N)=O)NC(=O)[C@H](CNC(=O)C[C@H](NC(=O)C3CCN(C(=O)CN4CCN(CC(=O)O)CCN(CC(=O)O)CCN(CC(=O)O)CC4)CC3)C(=O)N2)NC(=O)[C@H](Cc2c[nH]c3ccccc23)NC(=O)[C@H]([C@@H](C)O)NC1=O [3BP-4256] ({DOTA-Inp}-DCE[dP]DWLTW[Dap]C-NH2; lactam 1-10; linker 2-11 via mXylylene) |
| A (t1/2>15.0 minutes) | < 10 |  |  | < 10 | CC(C)C[C@@H]1NC(=O)[C@H](Cc2ccc(NC(=O)c3ccc(S(N)(=O)=O)s3)cc2)NC(=O)[C@H](CC(=O)O)NC(=O)[C@H]2CCCN2C(=O)[C@H](CCC(=O)O)NC(=O)[C@@H](NC(=O)[C@H](Cc2ccc(O)cc2)NC(=O)[C@@H](NC(=O)CN2CCC(NC(=O)CN3CCN(CC(=O)O)CCN(CC(=O)O)CCN(CC(=O)O)CC3)CC2)C(C)C)CSCc2cccc(c2)CSC[C@@H](C(N)=O)NC(=O)[C@H](CO)NC(=O)[C@H](Cc2c[nH]c3ccccc23)NC(=O)[C@H]([C@@H](C)O)NC1=O [3BP-4402] ({DOTA}-[X2]VYCE[dP]D[Phe(4-NH2)](X27)LTWSC-NH2; linker 4-13 via mXylylene) |
| B (t1/2 between 5.1 and 15.0 minutes) | < 10 | < 10 |  |  | CC(C)CC(=O)Nc1cccc(C[C@@H]2NC(=O)[C@H](CC(=O)O)NC(=O)[C@H]3CCCN3C(=O)[C@H](CCC(=O)O)NC(=O)[C@@H](NC(=O)[C@H](Cc3ccc(O)cc3)NC(=O)[C@@H](NC(=O)CN3CCC(NC(=O)CN4CCN(CC(=O)O)CCN(CC(=O)O)CCN(CC(=O)O)CC4)CC3)C(C)C)CSCc3cccc(c3)CSC[C@@H](C(N)=O)NC(=O)[C@H](CO)NC(=O)[C@H](Cc3c[nH]c4ccccc34)NC(=O)[C@H]([C@@H](C)O)NC(=O)[C@H](CC(C)C)NC2=O)c1 [3BP-4236] ({DOTA}-[X2]VYCE[dP]D[X22]LTWSC-NH2; linker 4-13 via mXylylene) |

Further lines, the compound ahead of its results:

| Compound | t1/2 category (activity) [1] | Kd [1] [nM] | IC50 [2, 3] [nM] | IC50 [2, 4] [nM] | IC50 [2, 5] [nM] |
| --- | --- | --- | --- | --- | --- |
| CC(C)C[C@@H]1NC(=O)[C@H](Cc2c[nH]c3ccccc23)NC(=O)[C@H](CC(=O)O)NC(=O)[C@H]2CCCN2C(=O)[C@H](CCC(=O)O)NC(=O)[C@@H]2CSCc3cccc(c3)CSC[C@@H](C(N)=O)NC(=O)[C@H](CNC(=O)CC[C@H](NC(=O)[C@@H](NC(=O)CN3CCC(NC(=O)CN4CCN(CC(=O)O)CCN(CC(=O)O)CCN(CC(=O)O)CC4)CC3)C(C)C)C(=O)N2)NC(=O)[C@H](Cc2c[nH]c3ccccc23)NC(=O)[C@H]([C@@H](C)O)NC1=O [3BP-4175] ({DOTA}-[X2]VECE[dP]DWLTW[Dap]C-NH2; lactam 3-12; linker 4-13 via mXylylene) | A (t1/2>15.0 minutes) | < 10 | < 10 |  |  |
| CC(C)[C@H](NC(=O)CN1CCC(NC(=O)CN2CCN(CC(=O)O)CCN(CC(=O)O)CCN(CC(=O)O)CC2)CC1)C(=O)N[C@@H](Cc1ccc(O)cc1)C(=O)N[C@H]1CSCc2cccc(c2)CSC[C@@H](C(N)=O)NC(=O)[C@H](CO)NC(=O)[C@H](Cc2c[nH]c3ccccc23)NC(=O)[C@H]([C@@H](C)O)NC(=O)[C@H](CC2CCCCC2)NC(=O)[C@H](Cc2c[nH]c3ccccc23)NC(=O)[C@H](CC(=O)O)NC(=O)[C@H]2CCCN2C(=O)[C@H](CCC(=O)O)NC1=O [3BP-4143] ({DOTA}-[X2]VYCE[dP]DW[Cha]TWSC-NH2; linker 4-13 via mXylylene) | C (t1/2 between 2.1 and 5.0 minutes) | < 10 | < 10 |  |  |
| CC(C)C[C@@H]1NC(=O)[C@H](Cc2cccc(NC(=O)CN3C(=O)NC4NC(=O)NC43)c2)NC(=O)[C@H](CC(=O)O)NC(=O)[C@H]2CCCN2C(=O)[C@H](CCC(=O)O)NC(=O)[C@@H](NC(=O)[C@H](Cc2ccc(O)cc2)NC(=O)[C@@H](NC(=O)CN2CCC(NC(=O)CN3CCN(CC(=O)O)CCN(CC(=O)O)CCN(CC(=O)O)CC3)CC2)C(C)C)CSCc2cccc(c2)CSC[C@@H](C(N)=O)NC(=O)[C@H](CO)NC(=O)[C@H](Cc2c[nH]c3ccccc23)NC(=O)[C@H]([C@@H](C)O)NC1=O (stereo partly drawn) [3BP-4341] ({DOTA}-[X2]VYCE[dP]D[X7](X13)LTWSC-NH2; linker 4-13 via mXylylene) | C (t1/2 between 2.1 and 5.0 minutes) | < 10 |  |  | 10 to 79.4 |
| CC(=O)N[C@H](C(=O)N[C@@H](Cc1ccc(O)cc1)C(=O)N[C@H]1CSCc2cccc(c2)CSC[C@@H](C(N)=O)NC(=O)[C@H](C)NC(=O)[C@H](Cc2c[nH]c3ccccc23)NC(=O)[C@H]([C@@H](C)O)NC(=O)[C@H](CC(C)C)NC(=O)[C@H](Cc2c[nH]c3ccccc23)NC(=O)[C@H](CC(=O)O)NC(=O)[C@@H](C)NC(=O)[C@H](CCC(=O)O)NC1=O)C(C)C [3BP-3280] (Ac-VYCE[dA]DWLTWAC-NH2; linker 3-12 via mXylylene) | B (t1/2 between 5.1 and 15.0 minutes) | < 10 |  | < 10 |  |
| CC(C)C[C@@H]1NC(=O)[C@H](Cc2cccc(NC(=O)CCCS(N)(=O)=O)c2)NC(=O)[C@H](CC(=O)O)NC(=O)[C@H]2CCCN2C(=O)[C@H](CCC(=O)O)NC(=O)[C@@H]2CSCc3cccc(c3)CSC[C@@H](C(N)=O)NC(=O)[C@H](CNC(=O)C[C@H](NC(=O)CN3CCN(C(=O)CN4CCN(CC(=O)O)CCN(CC(=O)O)CCN(CC(=O)O)CC4)CC3)C(=O)N2)NC(=O)[C@H](Cc2c[nH]c3ccccc23)NC(=O)[C@H]([C@@H](C)O)NC1=O [3BP-4497] ({DOTA}-[X1]DCE[dP]D[Phe(3-NHCO(CH2)3SO2NH2)]LTW[Dap]C-NH2; lactam 2-11; linker 3-12 via mXylylene) | A (t1/2>15.0 minutes) | < 10 | 10 to 79.4 |  |  |
| CC(C)C[C@@H]1NC(=O)[C@H](Cc2c[nH]c3ccccc23)NC(=O)[C@H](CC(=O)O)NC(=O)[C@H]2CCCN2C(=O)[C@H](CCC(=O)O)NC(=O)[C@@H](NC(=O)[C@H](Cc2ccc(O)cc2)NC(=O)[C@@H](NC(=O)CN2CCC(NC(=O)CN3CCN(CC(=O)O)CCN(CC(=O)O)CCN(CC(=O)O)CC3)CC2)C(C)C)CSCc2cccc(c2)CSC[C@@H](C(N)=O)NC(=O)[C@H](CCC(=O)NC[C@H](O)[C@@H](O)[C@H](O)[C@H](O)CO)NC(=O)[C@H](Cc2c[nH]c3ccccc23)NC(=O)[C@H]([C@@H](C)O)NC1=O [3BP-4122] ({DOTA}-[X2]VYCE[dP]DWLTWE(NH(1-deoxy-D-glucityl))C-NH2; linker 4-13 via mXylylene) | A (t1/2>15.0 minutes) | < 10 | < 10 |  |  |
